“And” between values parts separate entries of the source, which are not always exact repeats. Equal entries are not always repeated. Where two headings read alike, the source gives them in different places. Blank lines part the entries; values can stand above or below the compound they belong to.
What was measured:
[1] = Pharmacokinetic analysis of T1-1 as a prodrug of MRS5474: plasma PK in mice after i.v. and p.o. dosing; format: in vivo, Male CD-1 mice; parameters: AUClast/D: unit not given here; details: CD-1 mice; for MRT inf: read-out: MRTInf_obs
Method: Pharmacokinetic Analysis of Compound T1-1 for Determination Utility as a Prodrug of MRS5474:
The dosing formulation (for i.v.) of T1-1 for mouse PK studies were prepared as 0.27 mg/mL solution of 10% DMSO+50% PEG400+40% WATER (Dissolved 1.19 mg of T1-1 in 0.441 mL of DMSO with vortexing and sonication, then added 2.204 mL of PEG400 and 1.763 mL of H2O with vortexing to obtain a solution). The dosing formulation (for p.o.) of T1-1 for mouse PK studies were prepared 2.71 mg/mL solution of 10% DMSO+50% PEG400+40% WATER (Dissolved 10.17 mg of in 0.375 mL of DMSO with vortexing and sonication, then added 1.876 mL […] of PEG400 and 1.501 mL of H2O with vortexing to obtain a solution.)
Animals: Male CD-1 mice (6-8 weeks of age), weighing 20-22 g; all animals were allowed to acclimate to this environment for one week prior to experimental manipulations.
Study Design: Study design The CD1 mice were given a single dose of T1-1 by bodyweight via intravenous (i.v.), or via oral gavage (p.o) administration. The blood and brain tissue samples were collected at intervals (h) of 0, 0.5, 1, 2, 4, 8, and 24. (n=3, each time point).
Plasma Sample Preparation: Approximately 0.3 mL blood will be collected at each time point. After collecting the blood at each time point, add 250 to 300 μL of the blood sample to Eppendorf tube containing EDTA solution+10 μL of inhibitor stock and vortexed for 15 minutes and then centrifugation at 4000 g for 5 minutes in a 4° C. centrifuge to obtain plasma.
The desired serial concentrations of working solutions were achieved by diluting a stock solution of the analyte with 50% acetonitiile in water solution. 5 μL of working solutions (5, 10, 20, 50, 100, 500, 1000, 5000, 10000 ng/mL) were added to 50 μL of the blank CD1 Mouse plasma to achieve calibration standards of 0.5-1000 ng/mL (0.5, 1, 2, 5, 10, 50, 100, 500, 1000 ng/mL) in a total volume of 55 μL. Five quality control samples at 1 ng/mL, 2 ng/mL, 5 ng/mL, 50 ng/mL, and 800 ng/mL for plasma were prepared independently of those used for the calibration curves. These QC samples were prepared on the day of analysis in the same way as calibration standards. 55 μL standards, 55 μL QC samples and 55 unknown samples (50 μL plasma with 5 μL blank solution) were added to 200 μL of acetonitrile containing IS mixture for precipitating protein respectively. Then the samples were vortexed for 30 s. After centrifugation at 4 degree Celsius, 3900 rpm for 15 min, the supernatant was diluted 3 times with water. 1 μL of diluted supernatant was injected into the LC/MS/MS system for quantitative analysis using (Shimadzu-DGU-20A5 integrated with AB AP15500 LCMS/MS instrument) with to determine plasma concentrations of T1-1 and the metabolite (parent compound) MRA5474. The data were analyzed for test article T1-1 and the metabolite (parent compound) MRA5474 for PK profile.
The mobile phase consisted of acetonitrile and water mixtures, solution A: 5% acetonitrile (0.1% formic acid) and solution B: 95% acetonitrile (0.1% formic acid) with gradient elution from 90 to 10% solution A over 1.71 min. The flow rate was 0.7 mL/min. YMC Triart C18 5 μm (50×2.1 mm) column was used for the separation of the sample components.
Results: Summary of IV and PO of Plasma Pharmacokinetic Parameters

Homer 1a = assay: Quantitative real-time PCR analysis of brain tissue after oral gavage of T1-1; format: in vivo, Male CD1 mice; details: PO(2 h); for % Vehicle Mean: group mean of 3 mice; for % Vehicle Average / % Vehicle n = 1 / % Vehicle n = 2 / Relative mRNA expression (2^(−ΔCt)) Average / Relative mRNA expression(2^(−ΔCt)) n = 1 / Relative mRNA expression(2^(−ΔCt)) n = 2: individual mice M31-M33
Method: Quantitative Real-Time PCR Analysis
Male CD1 mice were administered vehicle and test compound (T1-1) by oral gavage. After 2 hours, the were decapitated, and their brain samples were collected. Total RNA from the brain tissue were isolated using […], RNA integrity was confirmed, and the concentration was quantified by measuring the optical density. Reverse transcription was performed (Invitrogen) for cDNA synthesis according to the manufacturer's instructions. Real-time qPCR was performed on Real-Time PCR System using SYBR Green. The amplification reactions were performed as per the supplier's protocol.

[2] = IV(plasma), T1-1 dosed 1.35 mg/kg
[3] = IV(plasma), T1-1 dosed 1.35 mg/kg, analyte = label
[4] = PO(plasma), T1-1 dosed 13.55 mg/kg
[5] = male, mouse, IV(plasma), T1-1 dosed 1.35 mg/kg, analyte = label
[6] = male, mouse, IV(plasma), T1-1 dosed 1.35 mg/kg, analyte = label (T1-1 or metabolite MRS5474)
[7] = male, mouse, PO(plasma), T1-1 dosed 13.55 mg/kg, analyte = label

- AUClast/D [1, 2]: 289.77
- Vss_obs [1, 2]: 1.57 L/kg
- AUC_% Extrap_obs [1, 3]: 0.93%
- Cl_obs [1, 3]: 56.98 mL/min/kg
- AUClast/D [1, 4]: 34.47
- F [1, 4]: 11.90%
- AUC(0-inf) [1, 5]: 395 ng·h/mL
- AUC(0-t) [1, 5]: 391 ng·h/mL
- C0 [1, 5]: 613 ng/mL
- half-life [1, 6]: 0.29 h
- MRT inf [1, 5]: 0.46 h
- AUC(0-t) [1, 7]: 467 ng·h/mL
- Cmax [1, 7]: 132 ng/mL
- Tmax [1, 7]: 0.5 h
SMILES: O=C(NCN(c1nc(Cl)nc2c1ncn2[C@H]1[C@H](O)[C@H](O)[C@@H]2C[C@@H]21)C(C1CC1)C1CC1)c1ccccc1 [Compound T1-1, N-(((2-chloro-9-((1S,2R,3S,4R,5R)-3,4-dihydroxybicyclo [3.1.0]hexan-2-yl)-9H-purin-6-yl) (dicyclopropylmethyl)amino)methyl) benzamide]
- % Vehicle Mean (Homer 1a; Homer 1a mRNA vs Actin): 112.74%
- % Vehicle Average (Homer 1a; Homer 1a mRNA vs Actin): 131.98% and 104.88% and 101.37%
- % Vehicle n = 1 (Homer 1a; Homer 1a mRNA vs Actin): 123.98% and 96.37% and 100.64%
- % Vehicle n = 2 (Homer 1a; Homer 1a mRNA vs Actin): 139.98% and 113.39% and 102.10%
- % Vehicle Mean (Homer 1a; Homer 1a mRNA vs GAPDH): 66.54%
- % Vehicle Average (Homer 1a; Homer 1a mRNA vs GAPDH): 75.27% and 51.17% and 73.18%
- % Vehicle n = 1 (Homer 1a; Homer 1a mRNA vs GAPDH): 72.27% and 49.10% and 72.10%
- % Vehicle n = 2 (Homer 1a; Homer 1a mRNA vs GAPDH): 78.27% and 53.24% and 74.26%
- Relative mRNA expression (2^(−ΔCt)) Average (Homer 1a; Homer 1a vs Actin): 0.51 and 0.41 and 0.40
- Relative mRNA expression(2^(−ΔCt)) n = 1 (Homer 1a; Homer 1a vs Actin): 0.48 and 0.38 and 0.39
- Relative mRNA expression(2^(−ΔCt)) n = 2 (Homer 1a; Homer 1a vs Actin): 0.55 and 0.44 and 0.40
- Relative mRNA expression (2^(−ΔCt)) Average (Homer 1a; Homer 1a vs GAPDH): 0.1187 and 0.0807 and 0.1154
- Relative mRNA expression(2^(−ΔCt)) n = 1 (Homer 1a; Homer 1a vs GAPDH): 0.1140 and 0.0774 and 0.1137
- Relative mRNA expression(2^(−ΔCt)) n = 2 (Homer 1a; Homer 1a vs GAPDH): 0.1234 and 0.0840 and 0.1171

- AUC_% Extrap_obs [1, 3]: 2.62%
- AUC_% Extrap_obs ([1]; PO(plasma), T1-1 dosed 13.55 mg/kg, analyte = label): 0.08%
- AUC(0-inf) [1, 5]: 321 ng·h/mL
- AUC(0-t) [1, 5]: 313 ng·h/mL
- Cmax [1, 5]: 127 ng/mL
- Tmax [1, 5]: 1 h
- half-life [1, 6]: 1.55 h
- MRT inf [1, 5]: 2.32 h
- AUC(0-inf) [1, 7]: 6990 ng·h/mL
- AUC(0-t) [1, 7]: 6990 ng·h/mL
- Cmax [1, 7]: 522 ng/mL
- Tmax [1, 7]: 1 h
- half-life [1, 7]: 2.32 h
- MRT inf [1, 7]: 6.36 h
SMILES: O[C@@H]1[C@H](O)[C@@H]2C[C@@H]2[C@H]1n1cnc2c(NC(C3CC3)C3CC3)nc(Cl)nc21 [MRS5474, (1R,2R,3S,4R,5S)-4-(2-chloro-6-((dicyclopropylmethyl)amino)-9H-purin-9-yl) bicyclo [3.1.0] hexane-2,3-diol, reference compound]

From patent publication US20230002389A1, “ADENINE ANALOGS, PRODRUGS, DERIVATIVES, COMPOSITIONS AND USES THEREOF” (priority 2021, published 2023)
